System: thiol-protease
Conditions: 100 μM E-64; anti-IGF1R antibody substrate; overnight at room temperature; reducing SDS-PAGE (FIG. 5)
Method: Gels containing 4-20% polyacryamide were used for reducing SDS-PAGE. Recipes for buffers were as follows: • 1.5M Tris pH 8.8: Dissolve 90.73 g Tris base in 400 ml DI H2O. pH to 8.8 with Hydrochloric Acid. Bring to volume of 500 ml with DI H2O, Store at 4° C. (This is one of the components used to make pH 8.8 Sample Buffer—below) • pH 8.8 Sample Buffer: Combine the following: 228 ml of DI H2O, 50 ml Glycerol, 50 ml 1.5M Tris pH 8.8, 50 ml 10% SDS solution, and 10 ml 0.05% Bromophenol Blue. Store at 4° C. • 2× Reducing Sample Buffer: Prepare 3% by volume 2-Mercaptoethanol in pH 8.8 Sample Buffer. Prepare fresh prior to use.
The buffers were combined with the samples in equal volumes and allowed to sit overnight at room temperature before boiling. This increases the sensitivity of the assay for protease activity. The samples were then boiled directly before submitting for SDS-PAGE.
E-64 was dissolved in DMSO and EDTA was dissolved in sterile distilled water. Samples were allowed to incubate overnight at room temperature. Samples were then combined in equal parts with anti-IGF1R drug substance to yield a final concentration of 0.5 mg/ml antibody. Reducing buffer was added in equal parts to the samples containing antibody. Following overnight incubation, these samples were then loaded onto gels for reducing SDS-PAGE for a final load of 10-12 μg of antibody. […]

CC(C)C[C@H](NC(=O)[C@H]1O[C@@H]1C(=O)O)C(=O)NCCCCN=C(N)N (relative stereo) [E-64, trans-epoxy-succinyl-L-leucylamido-(4-guanidino)butane]
inhibition of active thiol-protease in 1615 CHO medium supplement: inhibited

Reference: patent publication US8569007B2, “Method for reducing the appearance of false positive bands in SDS-page analysis of proteolytic digestion of a sample” (Merck Sharp & Dohme Corp., priority 2006, dated 2013)
